These are literature values, as cited in patent US20220211602A1, “INCREASING THE STABILITY OF AGENTS FOR TREATING KERATIN MATERIAL” (Henkel AG & Co. KGaA, priority 2019, published 2022).

For the data set the following is noted: for solubility in water: 25° C.

In the case of `O=C([O-])c1c(Cl)c(Cl)c(Cl)c(Cl)c1-c1c2c(Br)cc(=O)c(Br)c-2oc2c(Br)c(O)cc(Br)c12.O=C([O-])c1c(Cl)c(Cl)c(Cl)c(Cl)c1-c1c2c(Br)cc(=O)c(Br)c-2oc2c(Br)c(O)cc(Br)c12.[Na+].[Na+]` [Acid Red 92, disodium salt of 3,4,5,6-tetrachloro-2-(1,4,5,8-tetrabromo-6-hydroxy-3-oxoxanthen-9-yl)benzoic acid], the solubility in water result is listed as “greater than 10 g/L”.

As for `O=C([O-])C1=NN(c2ccc(S(=O)(=O)[O-])cc2)C(=O)C1N=Nc1ccc(S(=O)(=O)[O-])cc1.[Na+].[Na+].[Na+]` (stereo not shown) [Acid Yellow 23, trisodium salt of4,5-dihydro-5-oxo-1-(4-sulfophenyl)-4-((4-sulfophenyl)azo)-1H-pyrazole-3-carboxylic acid], the “solubility in water (in words)” value (at 25° C.) is “highly soluble”.

`O=S(=O)([O-])c1ccc(N=Nc2c(O)ccc3ccccc23)cc1.[Na+]` [Acid Orange 7, sodium salt of 4-[(2-hydroxy-1-naphthyDazo]benzene sulphonate]: the solubility in water result is given as “more than 7 g/L”.

In the case of `Nc1cc(S(=O)(=O)[O-])cc2cc(S(=O)(=O)[O-])c(N=Nc3ccccc3)c(O)c12.[Na+].[Na+]` [Acid Red 33, disodium salt of 5-amino-4-hydroxy-3-(phenylazo)-naphthalene-2,7-disulphonate], the solubility in water is 2500 µg/mL.
